Measured values published in PubChem BioAssay (NCI).
Values joined by “and” are separate entries in the source; they are usually repeats but may differ in a detail not shown here. Equal entries are not always repeated.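 Following 48 hours of exposure in 96-well plates, responses at five concentrations were used to interpolate endpoints linearly. GI50 marks 50% less growth. At the TGI there is no net growth.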

Experiments:
Assay in all cases: DTP human tumour cell line panel, 48 h
[1] = test system: 786-0 renal
[2] = test system: CAKI-1 renal
[3] = test system: SF-539 CNS
[4] = test system: SK-MEL-2 melanoma
[5] = test system: SK-MEL-28 melanoma
[6] = test system: TK-10 renal
[7] = test system: EKVX NSCLC
[8] = test system: HS 578T breast
[9] = test system: MCF7 breast
[10] = test system: BT-549 breast

SMILES	TGI [1]	TGI [2]	TGI [3]	TGI [4]	TGI [5]	TGI [6]	TGI [7]	GI50 [1] [µM]	GI50 [2] [µM]	GI50 [7] [µM]	GI50 [8] [µM]	TGI [8] [µM]	GI50 [9] [µM]	TGI [9] [µM]	GI50 [4] [µM]	GI50 [5] [µM]	GI50 [6] [µM]	GI50 [10] [µM]	TGI [10] [µM]	GI50 [3] [µM]
CN1CC(C(=O)C2C(=O)c3ccccc3C2=O)C(=O)C(=O)C(C(=O)C2C(=O)c3ccccc3C2=O)C1 (stereo unspecified)	> 100 µM	> 100 µM	> 100 µM	> 100 µM	> 100 µM	> 100 µM	–	–	–	–	–	–	–	–	–	–	–	–	–	–
CC1=CCC23C(C1)OC(Br)(C=CC2(C)O)C3(C)C (stereo unspecified)	> 100 µM	> 100 µM	> 100 µM	> 100 µM	> 100 µM	> 100 µM	> 100 µM	–	–	–	–	–	–	–	–	–	–	–	–	–
CCOC(=O)C1SC(=Nc2ccc(Cl)c(Cl)c2)N=C1C (stereo unspecified)	31.3 µM	> 100 µM	> 100 µM	> 100 µM	> 100 µM	> 100 µM	> 100 µM	–	–	–	–	–	–	–	–	–	–	–	–	–
CCOC(=O)/C=C/C(C(=O)/C=C/c1ccc(O)c(OC)c1)=C(O)\C=C\c1ccc(O)c(OC)c1	6.68 µM	17.5 µM	–	26.2 µM	6.09 µM	29.2 µM	42 µM	1.98	4.5	5.75	4.25	41.7	7.52	67.5	5.17	2	5.3	–	–	–
Fc1ccc(C2SCc3nc4ccccc4n32)cc1 (stereo unspecified)	> 100 µM	> 100 µM	> 100 µM	> 100 µM	76.5 µM	72 µM	> 100 µM	–	–	–	–	–	–	–	–	–	–	–	–	–
O=C(OCC1CO1)c1cccs1 (stereo unspecified)	> 100 µM	> 100 µM	–	> 100 µM	> 100 µM	> 100 µM	> 100 µM	–	–	–	–	–	–	–	–	–	–	–	–	–
N#CC1=C(N)NC(=O)NC12Nc1ccccc1S2 (stereo unspecified)	49.6 µM	> 72.6 µM	> 54.9 µM	> 64.2 µM	> 70.3 µM	66 µM	–	19.4	30.1	–	25.5	> 70.4	24.6	> 73.5	> 44.4	26.7	26.1	24.2	93.6	20.8
CC(=O)OCC1OC(OC2CC3C(C)(C)C(O)CC[C@]3(C)C3CCC45CC4(CC[C@H]5C(C)CC(O)C4OC4(C)C)[C@]23C)C(O)C(O)C1O (stereo partly specified)	14.9 µM and 18.9 µM	17.1 µM and 34.4 µM	15.3 µM and 18.7 µM	12.1 µM and 8.67 µM	14.3 µM and 21.3 µM	15.7 µM and 29.5 µM	15.9 µM and 29.2 µM	5.67	19.6	13.7	–	–	–	–	2.46	8.37	15.2	–	–	6.32
C=C1C(=O)O[C@H]2[C@H]1CC/C(COC(=O)NCCc1c[nH]c3ccc(OC)cc13)=C\CC[C@@]1(C)O[C@@H]21	3.47 µM	3.32 µM	4.01 µM	4.18 µM	3.22 µM	3.11 µM	5.45 µM	1.46	1.49	1.94	6.42	36.9	–	–	1.84	1.65	1.61	1.4	3.13	1.78
O=C(C(=O)N1CC2C=CC1CC2)c1c[nH]c2ccccc12 (stereo unspecified)	> 100 µM	> 100 µM	> 100 µM	> 100 µM	–	> 100 µM	–	–	–	–	–	–	–	–	–	–	–	–	–	–
Nc1c(C(=O)Nc2ccccc2)[n+]([O-])c2ccccc2[n+]1[O-]	27.1 µM	16.8 µM	37.3 µM	33.5 µM	34.9 µM	42.2 µM	56.9 µM	–	–	–	–	–	–	–	–	–	–	–	–	–
COc1ccc(/C=C/C(=O)Oc2cc(O)cc(O)c2)cc1	> 100 µM	31 µM	> 100 µM	> 100 µM	> 100 µM	> 100 µM	> 100 µM	–	–	–	–	–	–	71.7	–	–	–	–	> 100	–
CCCCCCCCCCCCSC(=N)N	33.9 µM	14.4 µM	32 µM	36.2 µM	27.9 µM	32.3 µM	–	15.3	3.79	–	17.3	38.8	3.44	15.5	19.5	13.7	16.4	18.9	47.1	15.2
COc1ccc(/C=C\c2cc(OC)c(OC)c(OC)c2)cc1OC(=O)CCC(=O)O	> 100 µM	> 100 µM	–	> 100 µM	> 100 µM	> 100 µM	> 100 µM	0.0121	< 0.0001	51.5	–	> 100	–	> 100	–	–	–	–	> 100	–
COc1cc2c(cc1O)CC13CCC(=O)N1CCc1cc(OC)c(O)c-2c13 (stereo unspecified)	> 68.1 µM	> 68.1 µM	> 68.1 µM	–	> 68.1 µM	> 68.1 µM	> 68.1 µM	–	–	–	–	–	–	–	–	–	–	–	–	–
COc1ccc2c(c1)C(=O)/C(=C/c1ncc([N+](=O)[O-])n1C)O2	5.07 µM	0.617 µM	3.41 µM	1.61 µM	1.91 µM	13.8 µM	–	1.51	0.23	–	0.74	10.9	0.32	7.98	0.361	0.317	1.38	0.618	1.99	1.55
Cc1cc(=O)oc2cc(OCc3c(F)cccc3Cl)ccc12	40.2 µM	> 100 µM	48.7 µM	> 100 µM	> 100 µM	> 100 µM	–	–	–	–	–	99.1	–	> 100	–	–	–	–	> 100	–
COc1ccccc1NC(=O)C1=C(C)NC(C)=C(C(=O)Nc2ccccc2OC)C1c1ccc(C)cc1	> 100 µM	> 100 µM	> 100 µM	> 100 µM	> 100 µM	> 100 µM	> 100 µM	–	–	–	–	–	–	–	–	–	–	–	–	–
Cc1ccc(-c2cc(C3=CC(=O)C=CC3=O)n(-c3ccc(S(N)(=O)=O)cc3)n2)cc1	58.8 µM	> 100 µM	–	> 100 µM	> 100 µM	48.7 µM	> 100 µM	26.6	52.3	47.8	64.8	> 100	53.1	> 100	> 100	> 100	8.54	64.1	> 100	–
CCN(CCCl)CCCNc1c2ccccc2nc2ccc(OC)cc12	–	–	–	–	–	–	–	102	133	557	–	–	–	–	587	665	872	–	–	421
CC(=O)OC1CC2(O)C3CCC4CC(O)CCC4(C)C3CCC2(C)C1C1=CC(=O)OC1 (stereo unspecified)	0.107 µM	0.13 µM	0.113 µM	0.505 µM	0.654 µM	0.489 µM	0.159 µM	–	–	–	–	> 100	–	–	–	–	–	–	0.0895	–

SMILES	TGI [1]	TGI [2]	TGI [3]	TGI [4]	TGI [5]	TGI [6]	TGI [7]	GI50 [1] [µM]	GI50 [2] [µM]	GI50 [7] [µM]	GI50 [8] [µM]	TGI [8] [µM]	GI50 [9] [µM]	TGI [9] [µM]	GI50 [4] [µM]	GI50 [5] [µM]	GI50 [6] [µM]	GI50 [10] [µM]	TGI [10] [µM]	GI50 [3] [µM]
CC(=O)CCCCO	> 100 µM	> 100 µM	> 100 µM	> 100 µM	> 100 µM	> 100 µM	> 100 µM	–	–	–	–	–	–	–	–	–	–	–	–	–
Cc1c(C)[n+](=O)c(C)c(C)n1[O-]	> 100 µM	> 100 µM	> 100 µM	–	> 100 µM	–	> 100 µM	> 100	> 100	> 100	> 100	> 100	> 100	> 100	–	> 100	–	–	–	> 100
S=C1Nc2ccc(Cl)cc2C2(c3ccccc3)N3CCN=C3NN12 (stereo unspecified)	> 100 µM	> 100 µM	> 100 µM	–	> 100 µM	> 100 µM	> 100 µM	38.3	48.8	55.7	–	–	27.4	> 100	–	30.9	35.1	30.8	> 100	36.7
O=C(CCl)N1c2ccccc2Sc2ccc3ccccc3c21	3.03 µM	0.95 µM	3.15 µM	3.8 µM	3.01 µM	2.92 µM	–	1.44	0.498	–	2.04	6.56	1.49	3.29	1.97	1.65	1.54	1.56	3.52	1.72
O=C(CC(=O)N1N=C(N2c3ccccc3Sc3ccccc32)CC1c1ccccc1)Nc1ccc(Cl)cc1 (stereo unspecified)	> 100 µM	> 100 µM	> 100 µM	–	> 100 µM	> 100 µM	> 100 µM	–	–	–	–	–	–	–	–	–	–	–	–	–
C1OC1CO[C@@H]1CO[C@H]2[C@@H]1OC[C@H]2OCC1CO1 (stereo partly specified)	> 100 µM	> 100 µM	> 100 µM	> 100 µM	> 100 µM	> 100 µM	> 100 µM	–	–	–	–	–	–	–	–	–	–	–	–	–
COC(=O)C1(F)C(=O)NC(=O)NC1O (stereo unspecified)	> 100 µM	> 100 µM	> 100 µM	> 100 µM	> 100 µM	> 100 µM	> 100 µM	–	–	–	–	> 100	–	> 100	–	–	–	–	–	–
CC#CC1/C(=C\C(=O)OC)CCCC1O (stereo unspecified)	> 100 µM	> 100 µM	> 100 µM	> 100 µM	> 100 µM	> 100 µM	> 100 µM	–	–	–	–	–	–	–	–	–	–	–	–	–
c1ccc2c(c1)[nH]c1cnc3c4cccnc4[nH]c3c12	31.7 µM	33.7 µM	44.7 µM	–	38.4 µM	26.1 µM	39 µM	–	–	–	–	–	–	–	–	–	–	–	–	–
COc1cc(-c2nc3sc4c(c3c(=O)[nH]2)CCCCCC4)cc(OC)c1OC	23.2 µM	> 33.2 µM	2.08 µM	7.5 µM	> 33.2 µM	> 33.2 µM	–	1.46	1.23	–	0.922	9.76	0.903	> 33.2	1.11	1.95	13.8	1.26	19	0.673
N#CCc1ncc(-c2ccc(C(F)(F)F)cc2)c(NC2CCCCCC2)n1	> 10 µM	> 10 µM	> 10 µM	> 10 µM	> 10 µM	> 10 µM	–	> 10	> 10	–	> 10	> 10	> 10	> 10	> 10	> 10	> 10	> 10	> 10	> 10
O=c1cc(-c2ccccc2)[nH]n1-c1nc2ccccc2[nH]1	46.6 µM	> 100 µM	27.1 µM	66.8 µM	> 100 µM	> 100 µM	–	4.8	3.42	–	7.47	> 100	3.89	> 100	9.32	3.61	17.7	7.03	> 100	3.94
NC(=O)C(c1ccccc1)N1CCOCC1 (stereo unspecified)	> 100 µM	> 100 µM	> 100 µM	> 100 µM	> 100 µM	> 100 µM	–	–	–	–	–	–	–	–	–	–	–	–	–	–
O=C1C(=O)N(c2ccc(Cl)cc2Cl)C(=O)C(=O)C1c1nc2ccccc2o1	> 100 µM	> 100 µM	> 100 µM	> 100 µM	> 100 µM	> 100 µM	> 100 µM	–	–	–	–	–	–	–	–	–	–	–	–	–
O=C1CN(C(=O)c2ccccc2)Cc2[nH]c3ccccc3c21	> 100 µM	–	> 100 µM	> 100 µM	> 100 µM	> 100 µM	> 100 µM	–	–	–	–	–	–	–	–	–	–	–	–	–
Cc1cc(NS(=O)(=O)c2ccc(NC(=O)c3cccc4c(Nc5ccc(S(=O)(=O)N=C(N)N)cc5)c5ccccc5nc34)cc2)no1	> 100 µM	> 100 µM	> 100 µM	–	> 100 µM	> 100 µM	> 100 µM	–	–	–	–	–	–	–	–	–	–	–	–	–
NC(N)=NNC(=O)CCCCCCCC(=O)NN=C(N)N	> 100 µM	> 100 µM	> 100 µM	> 100 µM	> 100 µM	> 100 µM	> 100 µM	–	–	–	–	–	–	–	–	–	–	–	–	–
COc1ccc(-c2ccc(-c3ccc(-c4ccc(C(=N)N)cc4)s3)s2)cc1OC	49.7 µM	30.4 µM	38.7 µM	43.5 µM	40.6 µM	–	–	18.4	15.1	–	21.2	48.1	0.39	2.1	19.7	18.1	–	17.3	46.8	15.4
CC(=O)OC1(C)C(=O)OC1(C)C(C)=O (stereo unspecified)	> 100 µM	> 100 µM	> 100 µM	> 100 µM	> 100 µM	> 100 µM	> 100 µM	–	–	–	–	–	–	–	–	–	–	–	–	–
O=C(N/N=C/c1ccccc1O)C(=O)Nc1ccc(F)cc1	> 100 µM	22 µM	18.5 µM	> 100 µM	> 100 µM	> 100 µM	–	6.96	2.24	–	33.8	> 100	3.52	> 100	22.9	8.04	6.12	18.1	> 100	2.98
